Reference: ChEMBL document CHEMBL5143555, “Potentiating the intracellular killing of Staphylococcus aureus by dihydroquinazoline analogues as NorA efflux pump inhibitor” (Bioorg Med Chem, 2022)
Converted amounts (≈) assume the structure as drawn. The source made the active and inactive calls. The rule behind the calls is not given here.

Legend:
Staphylococcus aureus [1] = assay: Antibacterial activity against Staphylococcus aureus 1199 measured after 24 hrs by Muller Hinton broth based MTT assay; format: functional
Staphylococcus aureus [2] = assay: Antibacterial activity against Staphylococcus aureus 1199B measured after 24 hrs by Muller Hinton broth based MTT assay; format: functional
Staphylococcus aureus [3] = assay: Antibacterial activity against Staphylococcus aureus K1758 measured after 24 hrs by Muller Hinton broth based MTT assay; format: functional
[4] = molecular target: T1, Quinolone resistance protein NorA (Staphylococcus aureus) (UniProt P0A0J7); assay: Inhibition of NorA in Staphylococcus aureus 1199B assessed as potentiation of norfloxacin-induced antibacterial activity by measuring Norfloxacin MIC at sub MIC relative to norfloxacin MIC alone
T1 sequence (whole entry): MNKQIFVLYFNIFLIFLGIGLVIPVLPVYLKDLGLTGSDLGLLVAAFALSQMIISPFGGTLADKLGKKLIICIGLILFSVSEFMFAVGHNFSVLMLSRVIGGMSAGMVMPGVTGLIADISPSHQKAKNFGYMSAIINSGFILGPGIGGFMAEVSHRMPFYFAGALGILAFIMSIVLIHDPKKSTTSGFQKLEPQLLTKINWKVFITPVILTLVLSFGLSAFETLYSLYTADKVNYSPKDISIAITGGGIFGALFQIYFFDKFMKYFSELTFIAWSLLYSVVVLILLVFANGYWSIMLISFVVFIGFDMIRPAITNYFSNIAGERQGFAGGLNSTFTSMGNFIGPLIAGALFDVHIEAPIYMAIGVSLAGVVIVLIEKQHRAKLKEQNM

[5] = molecular target: T1, Quinolone resistance protein NorA (Staphylococcus aureus); assay: Inhibition of NorA in Staphylococcus aureus 1199B assessed as accumulation of ethidium bromide at 3.9 ug/ml by measuring fluorescence intensity measured at 5 mins interval for 40 mins by fluorescence spectrophotometry; settings: dose 3.9 µg/ml
[6] = molecular target: T1, Quinolone resistance protein NorA (Staphylococcus aureus); assay: Inhibition of NorA in Staphylococcus aureus 1199B assessed as potentiation of ethidium bromide-induced antibacterial activity by measuring ethidium bromide MIC at sub MIC
[7] = molecular target: T1, Quinolone resistance protein NorA (Staphylococcus aureus); assay: Inhibition of NorA in Staphylococcus aureus 1199B assessed as potentiation of norfloxacin-induced antibacterial activity by measuring Norfloxacin MIC at sub MIC
[8] = molecular target: T1, Quinolone resistance protein NorA (Staphylococcus aureus); assay: Inhibition of NorA in Staphylococcus aureus 1199B assessed as potentiation of norfloxacin-induced antibacterial activity by measuring fractional inhibitory concentration
[9] = molecular target: T1, Quinolone resistance protein NorA (Staphylococcus aureus); assay: Inhibition of NorA in Staphylococcus aureus 1199B assessed as potentiation of ethidium bromide-induced antibacterial activity by measuring ethidium bromide MIC at sub MIC relative to ethidium bromide MIC alone
[10] = Cytotoxicity against kidney epithelial cells (unknown origin) assessed as cell viability at 50 ug/mL measured after 24 hrs by alamar blue assay relative to control; format: toxicity, cell-based, Fetal kidney cell; settings: at 50 µg/mL, read-out: Activity
[11] = molecular target: T1, Quinolone resistance protein NorA (Staphylococcus aureus); assay: Inhibition of NorA in Staphylococcus aureus 1199B assessed as potentiation of 3.1 ug/mL norfloxacin-induced bactericidal activity by measuring log reduction in bacterial count at 3.9 ug/mL measured after 24 hrs by time-kill kinetics assay; settings: dose 3.9 µg/ml
[12] = molecular target: T1, Quinolone resistance protein NorA (Staphylococcus aureus); assay: Inhibition of NorA in Staphylococcus aureus 1199B assessed as potentiation of ethidium bromide-induced antibacterial activity by measuring fractional inhibitory concentration
[13] = molecular target: T1, Quinolone resistance protein NorA (Staphylococcus aureus); assay: Inhibition of NorA in Staphylococcus aureus 1199B assessed as potentiation of ethidium bromide-induced bactericidal activity at 62.5 ug/ml measured after 24 hrs by time-kill kinetics assay; settings: dose 62.5 µg/ml
[14] = molecular target: T1, Quinolone resistance protein NorA (Staphylococcus aureus); assay: Inhibition of NorA in Staphylococcus aureus 1199B assessed as accumulation of norfloxacin at 3.9 ug/ml by measuring fluorescence intensity measured at 5 mins interval for 40 mins by fluorescence spectrophotometry; settings: dose 3.9 µg/ml

CN(C)[C@@H]1C(O)=C(C(N)=O)C(=O)[C@@]2(O)C(O)=C3C(=O)c4c(O)cccc4[C@@](C)(O)[C@H]3C[C@@H]12 [TETRACYCLINE]
MIC (Staphylococcus aureus [1]): 0.02 µg/mL (≈ 0.045 µM)
MIC (Staphylococcus aureus [2]): 0.42 µg/mL (≈ 0.945 µM)
MIC (Staphylococcus aureus [3]): 0.1 µg/mL (≈ 0.225 µM)

Fc1ccccc1C1=NC(c2ccc(Br)cc2)Nc2ccc(Cl)cc21 (centres undefined)
MIC (Staphylococcus aureus [1]): 125 µg/mL (≈ 301 µM)
MIC (Staphylococcus aureus [2]): > 1000 µg/mL
MIC (Staphylococcus aureus [3]): 250 µg/mL (≈ 601 µM)

CC1(C)S[C@@H]2[C@H](NC(=O)[C@H](N)c3ccc(O)cc3)C(=O)N2[C@H]1C(=O)O [AMOXICILLIN]
MIC (Staphylococcus aureus [1]): 0.05 µg/mL (≈ 0.137 µM)
MIC (Staphylococcus aureus [2]): 0.42 µg/mL (≈ 1.15 µM)
MIC (Staphylococcus aureus [3]): 0.1 µg/mL (≈ 0.274 µM)

CO[C@H]1/C=C/O[C@@]2(C)Oc3c(C)c(O)c4c(O)c(c(/C=N/N5CCN(C)CC5)c(O)c4c3C2=O)NC(=O)/C(C)=C\C=C\[C@H](C)[C@H](O)[C@@H](C)[C@@H](O)[C@@H](C)[C@H](OC(C)=O)[C@@H]1C [RIFAMPIN]
MIC (Staphylococcus aureus [1]): 0.1 µg/mL (≈ 0.122 µM)
MIC (Staphylococcus aureus [2]): 0.21 µg/mL (≈ 0.255 µM)
MIC (Staphylococcus aureus [3]): 0.1 µg/mL (≈ 0.122 µM)

GENTAMICIN
MIC (Staphylococcus aureus [1]): 0.21 µg/mL
MIC (Staphylococcus aureus [2]): 1.7 µg/mL
MIC (Staphylococcus aureus [3]): 0.1 µg/mL

c1ccc(C2=NC(c3ccccc3)Nc3ccccc32)cc1 (centres undefined)
fold change (FC) [4]: 16
Flu intensity [5]: 96.1
MIC [6]: 3.1 µg/mL
MIC [7]: 3.1 µg/mL
MIC (Staphylococcus aureus [1]): 125 µg/mL (≈ 440 µM)
MIC (Staphylococcus aureus [2]): 250 µg/mL (≈ 879 µM)
fractional inhibitory concentration index (FICI) [8]: 0.078
fold change (FC) [9]: 16
viability at 24 h, 50 ug/mL [10]: 71%
Activity [11]: > 3 log10CFU/ml
fractional inhibitory concentration index (FICI) [12]: 0.31
MIC (Staphylococcus aureus [3]): 250 µg/mL (≈ 879 µM)
inhibition [13]: Active
Flu intensity [14]: 3960

CN1c2ccc(Cl)cc2C(c2ccccc2)=NC1c1ccco1 (centres undefined)
MIC (Staphylococcus aureus [1]): 125 µg/mL (≈ 387 µM)
MIC (Staphylococcus aureus [2]): > 1000 µg/mL
MIC (Staphylococcus aureus [3]): 250 µg/mL (≈ 774 µM)

CC1(C)S[C@@H]2[C@H](NC(=O)[C@H](N)c3ccccc3)C(=O)N2[C@H]1C(=O)O [AMPICILLIN]
MIC (Staphylococcus aureus [1]): 0.05 µg/mL (≈ 0.143 µM)
MIC (Staphylococcus aureus [2]): 0.42 µg/mL (≈ 1.2 µM)
MIC (Staphylococcus aureus [3]): 0.1 µg/mL (≈ 0.286 µM)

O=C(O)c1cn(C2CC2)c2cc(N3CCNCC3)c(F)cc2c1=O [CIPROFLOXACIN]
MIC (Staphylococcus aureus [1]): 0.05 µg/mL (≈ 0.151 µM)
MIC (Staphylococcus aureus [2]): 0.21 µg/mL (≈ 0.634 µM)
MIC (Staphylococcus aureus [3]): 0.05 µg/mL (≈ 0.151 µM)

O=[N+]([O-])c1ccc2c(c1)C(c1ccccc1)=NC(c1ccccc1)N2 (centres undefined)
MIC (Staphylococcus aureus [1]): 125 µg/mL (≈ 380 µM)
MIC (Staphylococcus aureus [2]): 500 µg/mL (≈ 1520 µM)
MIC (Staphylococcus aureus [3]): 250 µg/mL (≈ 759 µM)

Brc1ccc(C2N=C(c3ccccc3)c3ccccc3N2)cc1 (centres undefined)
MIC (Staphylococcus aureus [1]): 125 µg/mL (≈ 344 µM)
MIC (Staphylococcus aureus [2]): > 1000 µg/mL
MIC (Staphylococcus aureus [3]): 250 µg/mL (≈ 688 µM)
